Test results from BindingDB's records for doi:10.1021/acs.jmedchem.3c00963 (n/a, 2023).
pIC50: −log10 of the molar value.

Biological target: Dual specificity protein kinase TTK (Mus musculus) (UniProt P35761)
Test: Inhibition of mouse MPS1

Sequence of Dual specificity protein kinase TTK (Mus musculus) (P35761 whole entry, looked up): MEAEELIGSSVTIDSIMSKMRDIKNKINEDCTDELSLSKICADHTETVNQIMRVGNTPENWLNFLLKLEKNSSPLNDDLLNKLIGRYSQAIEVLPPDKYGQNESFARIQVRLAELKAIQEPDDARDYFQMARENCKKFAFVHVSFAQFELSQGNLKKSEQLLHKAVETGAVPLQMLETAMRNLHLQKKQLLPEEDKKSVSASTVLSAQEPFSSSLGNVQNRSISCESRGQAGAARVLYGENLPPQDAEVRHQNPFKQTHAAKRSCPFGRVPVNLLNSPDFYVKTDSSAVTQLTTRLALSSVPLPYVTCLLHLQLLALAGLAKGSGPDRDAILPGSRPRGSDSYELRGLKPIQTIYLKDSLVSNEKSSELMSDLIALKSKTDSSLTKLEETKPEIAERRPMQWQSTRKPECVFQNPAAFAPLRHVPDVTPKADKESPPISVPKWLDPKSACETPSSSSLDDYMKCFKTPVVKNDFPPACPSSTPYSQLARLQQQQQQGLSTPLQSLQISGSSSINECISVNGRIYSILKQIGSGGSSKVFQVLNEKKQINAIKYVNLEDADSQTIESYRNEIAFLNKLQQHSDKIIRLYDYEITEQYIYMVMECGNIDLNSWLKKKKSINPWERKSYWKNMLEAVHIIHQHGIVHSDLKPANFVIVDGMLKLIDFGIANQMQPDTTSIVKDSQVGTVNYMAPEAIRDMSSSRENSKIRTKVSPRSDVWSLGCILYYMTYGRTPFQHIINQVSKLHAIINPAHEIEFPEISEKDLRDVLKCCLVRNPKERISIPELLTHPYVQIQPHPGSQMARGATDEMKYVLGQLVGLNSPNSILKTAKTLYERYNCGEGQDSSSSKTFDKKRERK

| Compound | pIC50 |
| --- | --- |
| CC(C)CNc1nccn2c(-c3ccc(C(=O)NC4CC4)cc3)cnc12 | 7.26 |
| CC(C)CNc1nc(-c2cccc3ncccc23)cn2c(-c3ccc(C(=O)NC4CC4)cc3)cnc12 | 8.05 |
